# From patent US5208344A, “Naphthalenepropionic acid derivatives as anti-inflammatory/antiallergic agents” (American Home Products Corporation, priority 1991, dated 1993)
# Where a name gives a salt, the structure may show the parent alone.
# Columns and labels:
# [1] = biological target: T1, 5-lipoxygenase (Rattus norvegicus, UniProt P12527); test: inhibition of 5-HETE synthesis by rat glycogen elicited polymorphonuclear leukocytes; assay type: cell-based; conditions: 10 μM, rat PMN, negative = potentiation of 5-HETE synthesis
# T1 construct: Peritoneal PMN are obtained from female Wistar rats (150-250 g); endogenous in cells; host or cells: rat glycogen-elicited peritoneal polymorphonuclear leukocytes, intact
# T1 sequence (P12527 1-673): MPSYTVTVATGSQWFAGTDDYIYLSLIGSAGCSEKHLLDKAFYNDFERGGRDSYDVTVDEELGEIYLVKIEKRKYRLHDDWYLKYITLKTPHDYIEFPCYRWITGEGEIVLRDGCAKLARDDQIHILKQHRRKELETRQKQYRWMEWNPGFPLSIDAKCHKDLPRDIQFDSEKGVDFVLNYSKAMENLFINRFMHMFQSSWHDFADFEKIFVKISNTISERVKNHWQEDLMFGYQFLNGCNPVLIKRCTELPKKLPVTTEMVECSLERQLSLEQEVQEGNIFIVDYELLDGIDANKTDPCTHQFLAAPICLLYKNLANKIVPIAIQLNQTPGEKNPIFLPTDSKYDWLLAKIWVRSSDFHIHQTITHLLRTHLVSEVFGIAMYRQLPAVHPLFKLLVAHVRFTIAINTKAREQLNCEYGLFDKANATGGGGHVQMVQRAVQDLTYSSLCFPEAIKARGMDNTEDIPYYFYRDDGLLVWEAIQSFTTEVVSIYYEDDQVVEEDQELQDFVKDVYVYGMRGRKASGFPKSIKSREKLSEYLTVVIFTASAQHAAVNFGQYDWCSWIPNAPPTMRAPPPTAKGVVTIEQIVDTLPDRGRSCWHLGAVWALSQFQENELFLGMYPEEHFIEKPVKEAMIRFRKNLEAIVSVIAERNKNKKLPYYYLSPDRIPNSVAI
# Method in brief: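 Peritoneal PMN from female Wistar rats given i.p. glycogen 24 h earlier were preincubated with compound for 10 min at 37° C (2×10^7 cells/ml, 10 mM L-cysteine). They were then stimulated 10 min with 10 μM A23187 plus 0.5 μM [14C]arachidonic acid. 5-HETE was separated by TLC and quantified by scintillation.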
# [2] = biological target: T2, 5-lipoxygenase (Homo sapiens, UniProt P09917); test: inhibition of 5-lipoxygenase in human whole blood (LTB4); assay type: cell-based; conditions: human whole blood
# T2 construct: Blood is obtained in 50-100 ml quantities from male donors; endogenous in cells; host or cells: human whole blood (leukocytes) from male donors
# T2 sequence (P09917 1-674): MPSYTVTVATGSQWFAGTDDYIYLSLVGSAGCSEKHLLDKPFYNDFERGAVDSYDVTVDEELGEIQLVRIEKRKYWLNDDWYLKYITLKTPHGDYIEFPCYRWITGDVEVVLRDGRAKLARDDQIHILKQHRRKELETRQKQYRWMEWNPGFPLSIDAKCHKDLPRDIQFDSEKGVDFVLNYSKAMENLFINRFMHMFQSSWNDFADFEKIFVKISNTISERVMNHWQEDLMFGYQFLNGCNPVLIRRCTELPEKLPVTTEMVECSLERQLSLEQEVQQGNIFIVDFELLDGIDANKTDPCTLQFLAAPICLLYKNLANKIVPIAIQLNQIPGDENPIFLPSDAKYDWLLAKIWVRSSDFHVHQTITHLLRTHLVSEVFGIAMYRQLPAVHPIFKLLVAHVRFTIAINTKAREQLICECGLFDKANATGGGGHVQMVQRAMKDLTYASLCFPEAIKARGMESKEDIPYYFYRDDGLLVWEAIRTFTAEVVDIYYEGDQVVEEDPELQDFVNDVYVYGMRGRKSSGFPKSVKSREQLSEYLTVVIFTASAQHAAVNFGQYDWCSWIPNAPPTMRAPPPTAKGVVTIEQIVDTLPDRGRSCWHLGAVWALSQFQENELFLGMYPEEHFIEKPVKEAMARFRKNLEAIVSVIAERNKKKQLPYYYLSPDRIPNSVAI
# Method in brief: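 Donor whole blood preincubated with compound (final 0.1% DMSO) 10 min at 37 °C, then stimulated with 30 μM calcium ionophore A23187 for 20 min at 37 °C; stopped on ice with 10 mM EGTA. Plasma LTB4 measured by RIA or ELISA, expressed per 10^6 neutrophils; IC50 by regression analysis.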
% Inhibition of 5-LO (as 5-HETE) [1] [%],inhibition at 25 µM ([2]; 25 μM) [%],inhibition at 10 µM ([1]; read-out: % Inhibition of 5-LO (as 5-HETE)) [%],"inhibition at 5 µM ([2]; 5 μM, read-out: % Inhibition of LTB4) [%]",Structure (SMILES)
85,19,–,–,"C[C@H](C(=O)O)c1ccc2cc(OCc3ccc4ccccc4n3)ccc2c1 [Example 17, S-(α)-α-Methyl-6-(2-quinolinylmethoxy)-2-naphthaleneacetic acid, tromethanime salt]"
–,–,100,44,"C[C@H](C(=O)N(C)O)c1ccc2cc(OCc3ccc4ccccc4n3)ccc2c1 [Example 24, (S)-N-Hydroxy-α-N-dimethyl-6-(2-quinolinylmethoxy)-2-naphthaleneacetamide]"
